These results are taken from paper PMC12775434, “Ultra-large virtual screening unveils potent agonists of the neuromodulatory orphan receptor GPR139” (Nature Communications, 2025).

Where “and” joins values, the source holds several entries; their conditions need not be identical. Equal entries are not always repeated.

Data set [1] addresses T1, GPR139 (Homo sapiens, UniProt Q6DWJ6).
T1 sequence (Q6DWJ6 1-353): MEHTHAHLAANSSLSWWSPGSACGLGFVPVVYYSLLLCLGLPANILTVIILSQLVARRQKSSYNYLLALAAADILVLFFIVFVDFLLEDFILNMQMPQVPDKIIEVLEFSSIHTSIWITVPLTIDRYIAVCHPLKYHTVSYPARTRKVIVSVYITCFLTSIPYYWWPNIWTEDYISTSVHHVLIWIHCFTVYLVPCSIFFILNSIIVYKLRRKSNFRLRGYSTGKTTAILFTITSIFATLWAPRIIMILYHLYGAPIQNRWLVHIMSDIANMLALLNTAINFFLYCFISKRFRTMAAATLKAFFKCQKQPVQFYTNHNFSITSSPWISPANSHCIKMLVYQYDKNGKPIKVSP
The data set can be described thus: Ca2+ mobilization assay, agonist mode, stable GPR139-CHOk1 cell line. The format is cell-based. An outline of the steps: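 Agonist activity of compounds is assessed in stably transfected CHO-K1 cells using the calcium dye Fluo-4 at 37 °C in HEPES-buffered HBSS (pH 7.4). Efficacy is expressed relative to the reference agonist Lundbeck Cmp 1a, set as 100%.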
Background: Calcium assays in cells follow changes in intracellular calcium, usually with a dye or a luminescent sensor.

Data set [2] concerns the target T1, GPR139. Briefly: Inositol monophosphate (IP1) accumulation assay, GPR139-CHOk1. The format is cell-based. As to conditions: for IP1 response (% of Cmp 1a): replicate experiments. As to the method:
Primary screening and pharmacological characterization of compounds were performed using a CHO-K1 cell line that stably expresses human GPR139 (GPR139-CHOk1). The GPR139-CHOk1 cell line was kindly provided by H. Lundbeck A/S, Denmark[24]. GPR139-CHOk1 cells were grown in Ham’s F-12 Kaighn’s Modification Medium (ThermoFisher #21127030) supplemented with 10% dialyzed fetal bovine serum (US origin, ThermoFisher #26400044), 100 units/mL Penicillin-Streptomycin (ThermoFisher #15140122), and 1 mg/mL Geneticin (ThermoFisher #11811031). […] M1R-CHOk1 cells were purchased from The Missouri S&T cDNA Resource Center (#CEM100TN00). M1R-CHOk1 cells were grown in Ham’s F12 Medium (ThermoFisher #21765029) supplemented with 10% fetal bovine serum (Brazilian origin, ThermoFisher #10270106), 100 units/mL Penicillin-Streptomycin, and 0.25 mg/mL Geneticin. HEK293A cells transiently transfected with GPR139 were used for additional pharmacological assessment of signaling pathways activated by GPR139. HEK239A cells were generously provided by Dr. Asuka Inoue, Tohoku University, Japan. HEK293A cells were grown in Dulbecco’s Modified Eagle Medium (ThermoFisher #31966047) supplemented with 10% dialyzed fetal bovine serum and 100 units/mL Penicillin-Streptomycin. Cell lines were maintained at 37 °C in humidified incubator equilibrated with 5% CO2.
HTRF IP-One Gq kit (Cisbio #62IPAPEC) was used to detect the accumulation of inositol monophosphate (IP1) as described in the work by Shehata et al.[26]. GPR139-CHOk1 cells were dissociated and resuspended in HEPES buffer. 50,000 cells in 5 µL and 5 µL test compounds diluted from DMSO stocks (final DMSO concentration of maximally 0.3%) in HEPES buffer supplemented with 40 mM LiCl were mixed in each well of white 384-well OptiPlate (PerkinElmer #6007290). The cells were incubated for 1 h at 37 °C. Then, 10 µL detection reagent composed of 2.5% Eu3 + -anti-IP1 antibody and 2.5% IP1-d2 diluted in lysis buffer was added, and the cells were incubated for 1 h at room temperature before measurements. Measurements were performed on EnVision Multimode Plate Reader (PerkinElmer) using excitation light of 340 nm and emission light of 615 nm and 665 nm. The time resolved-fluorescence resonance energy transfer (TR-FRET) 665 nm/615 nm ratio, which is inversely proportional to the IP1 accumulation, was used to determine the IP1 response.
Pharmacological data and statistical analyses were performed in GraphPad Prism v9–10 (Graphpad Software Inc., San Diego, CA), which are also specifically described in the figure and table legends. The functional assay responses were normalized to buffer (0%) and Lundbeck Cmp 1a or JNJ-63533054 (100%), for Ca^2+ and IP1 experiments in the GPR139-CHOk1 stable cell line or Ca^2+, G protein activation, and arrestin-3 recruitment experiments in the HEK293A cells transiently transfected with GPR139, respectively. Data are from at least three independent experiments, unless stated otherwise. Concentration-response curves were fitted applying non-linear regression using the log (agonist) versus response model with variable slope. ANOVA was applied for comparing results and determining statistical significance. Comparison of responses to the reference was performed using one-way ANOVA with Dunnett’s multiple comparisons test at significance threshold of p < 0.05. Comparison of responses across assays and ligands was performed using two-way ANOVA with Tukey’s multiple comparisons test at a significance threshold of p < 0.05.

In data set [3] the test system is patients with schizophrenia and major depressive disorder. As to conditions: cited from earlier work.
In data set [4] the target is T1, GPR139. The data set can be described thus: Ca2+ mobilization assay, antagonist mode (EC80 800 nM Lundbeck Cmp 1a after 20 min preincubation), GPR139-CHOk1. The format is cell-based. The following applies: individual replicates (Supplementary Figure 1). An outline of the steps: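 Fluo-4-loaded GPR139-CHOk1 cells in HEPES-buffered HBSS (pH 7.4, 2.5 mM probenecid) given test compounds at 10 µM, then after 20 min challenged with 800 nM Lundbeck Cmp 1a (EC80). Calcium fluorescence read at 37 °C, 485/525 nm.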

Data set [5] addresses T2, human muscarinic acetylcholine M1 receptor (M1R) (Homo sapiens, UniProt P11229).
T2 sequence (P11229 1-460): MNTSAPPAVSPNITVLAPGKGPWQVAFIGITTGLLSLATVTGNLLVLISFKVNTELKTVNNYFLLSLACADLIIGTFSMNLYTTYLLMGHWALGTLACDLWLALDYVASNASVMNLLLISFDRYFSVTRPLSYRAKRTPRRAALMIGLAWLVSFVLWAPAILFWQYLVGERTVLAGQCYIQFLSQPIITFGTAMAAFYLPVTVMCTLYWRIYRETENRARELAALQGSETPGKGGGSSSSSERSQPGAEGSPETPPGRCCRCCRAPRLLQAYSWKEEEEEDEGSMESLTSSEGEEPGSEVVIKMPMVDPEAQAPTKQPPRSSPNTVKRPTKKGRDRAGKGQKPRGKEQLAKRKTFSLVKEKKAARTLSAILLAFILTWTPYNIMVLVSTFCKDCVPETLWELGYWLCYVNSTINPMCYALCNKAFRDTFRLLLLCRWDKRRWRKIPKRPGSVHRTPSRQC
The data set can be described thus: Ca2+ mobilization counter-screen in M1R-CHOk1 cells. The format is cell-based. As to conditions: individual replicates (Supplementary Figure 2). An outline of the steps: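 M1R-CHOk1 cells seeded 20–24 h, loaded with 2 µM Fluo-4 AM (2.5 mM probenecid, 0.01% Pluronic F-68) for 1 h at 37 °C in HBSS/20 mM HEPES pH 7.4. Compounds added after baseline (≤0.3% DMSO); calcium fluorescence read at 37 °C, ex 485/em 525 nm.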

By Emax is commonly meant the size of the effect at its maximum, as opposed to the concentration needed. On to `C[C@H](NC(=O)Cn1nnc2ccccc2c1=O)c1ccc(OC(F)(F)F)cc1` [TAK-041, reference compound], for which the “Ca2+ signal (% of Cmp 1a)” value was 99 % of Cmp 1a and 95 % of Cmp 1a and 92 % of Cmp 1a in data set [1] (log [Compound] M -5.5, replicate experiments); 80 % of Cmp 1a and 94 % of Cmp 1a and 83 % of Cmp 1a in data set [1] (log [Compound] M -6.0, replicate experiments); 83 % of Cmp 1a and 80 % of Cmp 1a (2×) in data set [1] (log [Compound] M -6.5, replicate experiments); 63 % of Cmp 1a and 62 % of Cmp 1a (2×) in data set [1] (log [Compound] M -7.0, replicate experiments); 35 % of Cmp 1a and 36 % of Cmp 1a and 41 % of Cmp 1a in data set [1] (log [Compound] M -7.5, replicate experiments); 16 % of Cmp 1a and 11 % of Cmp 1a and 17 % of Cmp 1a in data set [1] (log [Compound] M -8.0, replicate experiments). The “Ca2+ signal (% of Cmp 1a)” value was 0 % of Cmp 1a in data set [1] (log [Compound] M -8.5, replicate experiments); 0 % of Cmp 1a in data set [1] (log [Compound] M -9.0, replicate experiments); 99 % of Cmp 1a and 95 % of Cmp 1a and 92 % of Cmp 1a in data set [1] (log [Compound] M = -5.5, individual replicate columns); 80 % of Cmp 1a and 94 % of Cmp 1a and 83 % of Cmp 1a in data set [1] (log [Compound] M = -6.0, individual replicate columns); 83 % of Cmp 1a and 80 % of Cmp 1a (2×) in data set [1] (log [Compound] M = -6.5, individual replicate columns); 63 % of Cmp 1a and 62 % of Cmp 1a (2×) in data set [1] (log [Compound] M = -7.0, individual replicate columns). In addition, the “Ca2+ signal (% of Cmp 1a)” value in data set [1] (log [Compound] M = -7.5, individual replicate columns) was 35 % of Cmp 1a and 36 % of Cmp 1a and 41 % of Cmp 1a; in data set [1] (log [Compound] M = -8.0, individual replicate columns) it was 16 % of Cmp 1a and 11 % of Cmp 1a and 17 % of Cmp 1a; in data set [1] (log [Compound] M = -8.5, individual replicate columns), 0 % of Cmp 1a; in data set [1] (log [Compound] M = -9.0, individual replicate columns), 0 % of Cmp 1a. The Emax in data set [1] (read-out: Emax (%), Ca2+ mobilization) was 100 ± 3%; in data set [2] (Supplementary Table 4, normalized to Lundbeck Cmp 1a, read-out: Emax (%), IP1 accumulation) it was 101 ± 9%. The “IP1 response (% of Cmp 1a)” value in data set [2] (log [Compound] M -4.5) is 112 % of Cmp 1a and 93 % of Cmp 1a and 83 % of Cmp 1a and 114 % of Cmp 1a; in data set [2] (log [Compound] M -5.0), 115 % of Cmp 1a and 78 % of Cmp 1a and 92 % of Cmp 1a and 118 % of Cmp 1a; in data set [2] (log [Compound] M -5.5) it was 87 % of Cmp 1a and 81 % of Cmp 1a and 75 % of Cmp 1a and 93 % of Cmp 1a; in data set [2] (log [Compound] M -6.0), 84 % of Cmp 1a and 66 % of Cmp 1a and 75 % of Cmp 1a and 94 % of Cmp 1a; in data set [2] (log [Compound] M -6.5), 86 % of Cmp 1a and 56 % of Cmp 1a and 45 % of Cmp 1a and 98 % of Cmp 1a; in data set [2] (log [Compound] M -7.0), 63 % of Cmp 1a (2×) and 41 % of Cmp 1a and 62 % of Cmp 1a. Moreover, the “IP1 response (% of Cmp 1a)” value in data set [2] (log [Compound] M -7.5) is 51 % of Cmp 1a and 26 % of Cmp 1a and 33 % of Cmp 1a and 49 % of Cmp 1a; in data set [2] (log [Compound] M -8.0), 28 % of Cmp 1a and -3.49 % of Cmp 1a and 8 % of Cmp 1a and 21 % of Cmp 1a. In data set [3] (anhedonia in schizophrenia and major depressive disorder), the “outcome of phase II trials” value is listed as “did not meet the primary endpoints”. Further, in data set [3], the safety and tolerability result is “good safety profile and was well tolerated”.
With `CCOc1ccc(C(=O)OCC(=O)N[C@H](C)c2ccccc2)cc1` [Compound 14, CCOC=1C=CC(=CC1)C(=O)OCC(=O)N[C@H](C)C=2C=CC=CC2], the “Ca2+ signal (% of Cmp 1a)” value in data set [1] (0.1 µM, individual replicates (Supplementary Figure 3)) is 1.0 % of Cmp 1a and -0.9 % of Cmp 1a; in data set [1] (1 µM, individual replicates (Supplementary Figure 3)) it was -7.4 % of Cmp 1a and 2.7 % of Cmp 1a; in data set [1] (10 µM, individual replicates (Supplementary Figure 3)) it was 15.1 % of Cmp 1a and 12.7 % of Cmp 1a; in data set [1] (Agonist mode, individual replicates (Supplementary Figure 1)), 37 % of Cmp 1a and 14 % of Cmp 1a and 31 % of Cmp 1a; in data set [4], 75.8591 % of Cmp 1a and 82.1128 % of Cmp 1a and 79.0278 % of Cmp 1a. Further, the “Ca2+ signal (% of Carbachol)” value in data set [5] was -14 % of Carbachol and 13 % of Carbachol.
